Each block holds one molecule with its values, some of them ahead of it.
Tests used:
[1] = test system: BBB; experiment: Length of time of BBB opening following administration of peptide; type: in vivo, mice
Experimental: A series of mice were administered 300 μg of K16ApoE followed by administration of ˜40 μL 2% EB at various time points. As a control, only EB was injected, cardiac perfusion was done 6 hours after EB injection, followed by collection of brain. For the other images, 300 μg of K16ApoE was first injected, then EB was injected after 5 min, 10 min, 30 min, 1 h, 2 h and 4 h, respectively. Then, perfusion and collection of brain was done after 5 h 55 min, 5 h 50 min, 5 h 30 min, 5 h, 4 h and 2 h, respectively).

[2] = test system: brain; experiment: Residence time of EB dye in brain following transportation by the peptide; type: in vivo, mice
Experimental: A series of mice were administered 300 μg of K16ApoE followed by administration of ˜40 μL 2% EB 10 min after administration of the peptide. As a control, only EB was injected, cardiac perfusion was done 6 hours after EB injection, followed by collection of brain. For all other mice, perfusion and collection of brains was performed 15 min, 30 min, 1 h, 2 h, 4 h, 6 h, 12, h, and 24 h following administration of EB.

[3] = test system: brains, lungs, heart, liver, spleen and kidney; experiment: Tissue distribution of Evans Blue (EB) after delivery via K16ApoE; type: in vivo, mice
Experimental: Mice were injected with various amounts of K16ApoE peptide (0 μg, 150 μg, 100 μg, 75 μg, 50 μg, 25 and μg) first. EB (40 μL of a 2% solution was injected 10 min after injection of the peptide. Tissues (brains, lungs, heart, liver, spleen and kidney) were collected 1 h after EB delivery. All injections were through the femoral vein.

[4] = test system: BBB; experiment: Transportation of Evan's Blue (EB) dye across the BBB after iv injection of peptide; type: in vivo, mouse; details: 67.5 nanomoles K16ApoE iv injected first, then ~40 μL 2% EB; brain evaluated ~2 hours after dye
Experimental: (§1) To explore whether K16ApoE (SEQ. ID. NO: 42) compromises integrity of the BBB, the peptide was first injected by iv followed by injection of Evan's Blue (EB; a routinely used small molecule blue dye with a molecular weight of 960.81) by iv into the femoral vein of a mouse. Cardiac perfusion was performed and the brains of the mice were removed and evaluated approximately 2 hours following injection of the dye. As controls, a peptide consisting of 16 lysine residues (K16) and a 20-amino acid peptide comprising the LDLR-binding domain of ApoE (ApoE-FITC; (SEQ ID NO:13)), were used. The particulars of each administration are as follows: • 1) 67.5 nanomoles of K16 injected first, then ˜40 μL 2% EB was injected. • 2) Same as 1 but K16 and EB mixed prior to injection. • 3) 67.5 nanomoles of ApoE-FITC injected first, then ˜40 μL 2% EB was injected. • 4) Same as 3 but ApoE-FITC peptide and EB was mixed prior to injection. • 5) 67.5 nanomoles of K16ApoE injected first, then ˜40 μL 2% EB was injected. • 6) Same as 5 but K16ApoE peptide and EB was mixed first before injection.

[5] = test system: BBB; experiment: EB transportation across the BBB as a function of the amount of K16ApoE administered; type: in vivo, mouse
Experimental: as §1
Using the method described in Example 1, various amounts of K16ApoE (SEQ. ID. NO: 42) was injected followed by administration of ˜40 μL 2% EB. […]

[6] = test system: BBB; experiment: Transportation of dyes of various molecular weights across the BBB (K16ApoE or K16ApoE+IgG); type: in vivo, mouse
Experimental: as §1
To evaluate delivery of molecules of various molecular weights across the blood brain barrier, the method of Example 1 was used with Evan's Blue (EB), MW 960.81 gmol; Crocein Scarlet, MW 584.54 g/mol; and Light green SF, MW 792.86 g/mol. […]

[7] = test system: BBB; experiment: Comparison of delivery of EB to the brain by K16ApoE and K26ApoE; type: in vivo; details: for EB dye in brain: EB 10 min later, brain collected 1 h after EB
Experimental: This experiment was carried out to evaluate if lengthening the lysine-chain will have any effect on the delivery of small molecules to the brain. ˜40 μL of 2% EB was injected 10 min after injection of various amounts of K16ApoE (75 μg, 100 μg, 150 μg, 250 μg, and 300 μg) or K26ApoE (25 μg, 50 μg, 75 μg, 100 μg, 125 μg, and 150 μg). K26ApoE (SEQ ID NO: 139) having the sequence: Brain tissue as was collected 1 h following EB injection. All injections were at the femoral vein.

[8] = control: only EB injected, perfusion 6 hours after EB

EB dye in brain [1, 8]: no dye was observed | time after administration up to which dye remains intense (retained well) in brain ([2]; EB 10 min after 300 μg K16ApoE): up to 4 h | time post EB administration at which dye is first observed in brain ([2]; EB 10 min after 300 μg K16ApoE): 15 min | time after administration up to which dye is still observed, less intensely, in brain ([2]; EB 10 min after 300 μg K16ApoE, longest time point tested): up to 24 hours | EB dye in brain [2, 8]: no dye is observed
Molecule: Cc1cc(-c2ccc(/N=N/c3ccc4c(S(=O)(=O)O)cc(S(=O)(=O)O)c(N)c4c3O)c(C)c2)ccc1/N=N/c1ccc2c(S(=O)(=O)O)cc(S(=O)(=O)O)c(N)c2c1O [EB, Evan's Blue]
EB in brain ([3]; EB 10 min after 0-150 μg K16ApoE, tissues collected 1 h after EB): goes into brain only after injection of the peptide | EB stain of tissues ([3]; EB injected after K16ApoE injection): Kidney, spleen and liver are stained with EB | EB stain of tissues ([3]; EB injected without K16ApoE): Kidney, spleen, liver and heart show some EB-stain

Molecule: KKKKKKKKKKKKKKKKLRVRLASHLRKLRKRLLRDA (KKKKKKKKKKKKKKKKLRVRLASHLRKLRKRLLRDA) [K16ApoE]
EB dye transported to the brain (blue coloring of brain) [4]: crosses the BBB and is transported to the brain | EB dye observed in the brain ([5]; increasing amounts of K16ApoE (100, 200, 300 μg) injected before ~40 μL 2% EB): increasing amount of EB dye present in the brain | EB dye observed in the brain ([5]; less than 100 μg K16ApoE injected before ~40 μL 2% EB): no dye is observed | transport of dye to the brain ([6]; 300 μg K16ApoE (alone or + 300 μg IgG) injected first, then dye (EB, Crocein Scarlet, Light green SF; ~40 μL 2%)): allowed transport of molecules of various sizes to the brain | transport of dye to the brain ([6]; 300 μg K16ApoE mixed with dye (~40 μL 2%) prior to injection): does not appear to cross the BBB | EB dye in brain ([1]; EB injected 5 min, 10 min, 30 min after 300 μg K16ApoE): observed | EB dye in brain ([1]; EB injected 1 h and 2 h after 300 μg K16ApoE): decreased intensity of dye observed | EB dye in brain ([1]; EB injected 4 h after 300 μg K16ApoE): little to no EB dye remaining | EB dye in brain ([7]; 75 μg of peptide): no dye was observed | EB dye in brain ([7]; 100 μg of peptide): only a small amount of dye present | EB dye in brain ([7]; 150 μg of peptide and above): Increasing EB is observed | amount of K16ApoE giving best EB entry into brain ([3]; EB 10 min after peptide, tissues collected 1 h after EB): 150 µg

Molecule: KKKKKKKKKKKKKKKKKKKKKKKKKKLRVRLASHLRKLRKRLLRDA (KKKKKKKKKKKKKKKKKKKKKKKKKKLRVRLASHLRKLRKRLLRDA) [K26ApoE]
EB dye in brain ([7]; 25 μg of peptide): no dye was observed | EB dye in brain ([7]; 50 μg of peptide): only a small amount of dye present | EB dye in brain ([7]; 75 μg of peptide): Increasing EB is observed | effectiveness in delivering EB to the brain relative to K16ApoE ([7]; K26ApoE vs K16ApoE): approximately two-fold

Source: patent US20140314663A1, “PEPTIDE-MEDIATED DELIVERY OF ACTIVE AGENTS ACROSS THE BLOOD-BRAIN BARRIER” (MAYO FOUNDATION FOR MEDICAL EDUCATION AND RESEARCH, priority 2011, published 2014)
